Patent US10189887B2, “Polypeptides and uses thereof for reducing CD95-mediated cell motility” (INSERM (INSTITUT NATIONAL DE LA SANTÉ ET DE LA RECHERCHE …, priority 2014, dated 2019)

Tests used:
Format in all cases: cell-based
MDA-MB-231 = assay: Boyden chamber migration of triple negative breast cancer cells; settings: MDA-MB-231 pre-incubated 1 hour with 10 μM; cl-CD95L 100 ng/mL for 24 h
Experimental: Boyden chambers contained membranes with a pore size of 8 μm (Millipore, Molsheim, France). After hydration of the membranes, breast cancer cells (10^5 cells per chamber) were added to the top chamber in low serum (1%)-containing medium. The bottom chamber was filled with low serum (1%)-containing medium in the presence or absence of cl-CD95L (100 ng/mL). Cells were cultured for 24 h at 37° C. To quantify migration, cells were mechanically removed from the top-side of the membrane using a cotton-tipped swab, and migrating cells from the reverse side were fixed with methanol and stained with Giemsa. For each experiment, five representative pictures were taken for each insert, then cells were lyzed and absorbance at 560 nm correlated to the amount of Giemsa stain was measured.

[1] = test system: CD95-mediated Ca^2+ response; assay: Calcium response to cl-CD95L in Jurkat cells (Fura2/FuraPE3 video imaging); settings: Jurkat pre-incubated 1 hr, 10 μM peptide, 100 ng/ml cl-CD95L
Experimental: Cells were loaded with Fura2-AM (1 μM) at resting temperature for 30 min in Hank's Balanced Salt Solution (HBSS). After washing with HBSS, the cells were incubated for 15 min in the absence of Fura2-AM to complete de-esterification of the dye. Cells were placed in a thermostated chamber (37° C.) of an inverted epifluorescence microscope (Olympus IX70) equipped with a ×40, UApo/340-1.15 W water-immersion objective (Olympus), and fluorescence micrograph images were captured at 510 nm and at 12-bit resolution by a fast-scan camera (CoolSNAP fx Monochrome, Photometrics). To minimize UV light exposure, 4×4 binning function was used. Fura2-AM was alternately excited at 340 and 380 nm, and ratios of the resulting images (excitations at 340 and 380 nm and emission filter at 520 nm) were produced at constant intervals (5 s or 10 s according to the stimulus). […] Fluorescent images were pseudocolored using the IMD display mode in MetaFluor and assembled without further manipulation in Photoshop (Adobe). Raw data were acquired with MetaFluor and graphed in Origin (OriginLab). [Ca^2+]i was calculated using the following equation: [Ca^2+]i=Kd(R−Rmin)/(R−Rmax)×Sf2/Sf1, where Kd is the Fura2-AM dissociation constant at the two excitation wavelengths (F340/F380); Rmin is the fluorescence ratio in the presence of minimal calcium, obtained by chelating Ca^2+ with 10 mM EGTA; Rmax is the fluorescence ratio in the presence of excess calcium, obtained by treating cells with 1 μM ionomycin; Sf2 is the fluorescence of the Ca^2+-free form; and Sf1 is the fluorescence of the Ca^2+-bound form of Fura2-AM at excitation wavelengths of 380 and 340 nm, respectively. In some experiments cells were placed in a Ca^2+-free medium consisting of the HBSS described above in which CaCl2 was omitted and 100 μM EGTA was added in order to chelate residual Ca^2+ ions. This medium was added to the cells just before recording to avoid leak of the intracellular calcium stores.
T cells were loaded with Fura-PE3-AM (1 μM) at room temperature for 30 min in Hank's Balanced Salt Solution (HBSS). After washing, the cells were incubated for 15 min in the absence of Fura-PE3-AM to complete de-esterification of the dye. Cells were placed in the temperature controlled chamber (37° C.) of an inverted epifluorescence microscope (Olympus IX70) equipped with an ×40 UApo/340-1.15 W water-immersion objective (Olympus), and fluorescence micrograph images were captured at 510 nm and 12-bit resolution by a fast-scan camera (CoolSNAP fx Monochrome, Photometrics). To minimize UV light exposure, a 4×4 binning function was used. Fura-PE3 was alternately excited at 340 and 380 nm, and the ratios of the resulting images (emission filter at 520 nm) were produced at constant intervals (10 seconds). The Fura-PE3 ratio (Fratio 340/380) images were analyzed offline with Universal Imaging software, including Metafluor and Metamorph. Fratio reflects the intracellular Ca^2+ concentration changes. Each experiment was repeated 3 times, and the average of more than 20 single-cell traces was analyzed.

[2] = test system: CD95-mediated Ca^2+ response; assay: Calcium response to cl-CD95L in CEM cells; settings: CEM pre-incubated 1 hr, 10 μM peptide, 100 ng/ml cl-CD95L
Experimental: Cells were loaded with Fura2-AM (1 μM) at resting temperature for 30 min in Hank's Balanced Salt Solution (HBSS). After washing with HBSS, the cells were incubated for 15 min in the absence of Fura2-AM to complete de-esterification of the dye. Cells were placed in a thermostated chamber (37° C.) of an inverted epifluorescence microscope (Olympus IX70) equipped with a ×40, UApo/340-1.15 W water-immersion objective (Olympus), and fluorescence micrograph images were captured at 510 nm and at 12-bit resolution by a fast-scan camera (CoolSNAP fx Monochrome, Photometrics). To minimize UV light exposure, 4×4 binning function was used. […]
T cells were loaded with Fura-PE3-AM (1 μM) at room temperature for 30 min in Hank's Balanced Salt Solution (HBSS). […] Cells were placed in the temperature controlled chamber (37° C.) of an inverted epifluorescence microscope (Olympus IX70) equipped with an ×40 UApo/340-1.15 W water-immersion objective (Olympus), and fluorescence micrograph images were captured at 510 nm and 12-bit resolution by a fast-scan camera (CoolSNAP fx Monochrome, Photometrics). […] The Fura-PE3 ratio (Fratio 340/380) images were analyzed offline with Universal Imaging software, including Metafluor and Metamorph. […] Each experiment was repeated 3 times, and the average of more than 20 single-cell traces was analyzed.

[3] = test system: apoptotic signaling pathway; assay: CD95 apoptotic signaling pathway; settings: TAT-CID treatment
murin CD95 = assay: Calcium response in mouse CD95-expressing CEM-IRC cells; settings: CEM-IRC cells reconstituted with wild type mouse CD95

## TAT-CID: cell penetrating peptide linking the 36-amino acid-stretch of CID (CD95 residues 175 to 210) to the HIV-TAT sequence; SEQ ID NO: 6 (RKKRRQRRRKRKEVQKTCRKHRKENQGSHESPTLNPETVAINLSD; TAT-CID)
MDA-MB-231
  cell migration (Boyden chamber assay): inhibits migration
[1]
  calcium response to cl-CD95L: abolished the induction of the CD95-mediated Ca^2+ signal
[1]; listed as TAT CID 175-210
  calcium response to cl-CD95L: greatly reduced the calcium response
[2]
  calcium response to cl-CD95L: abolished the induction of the CD95-mediated Ca^2+ signal
[2]; listed as TAT CID 175-210
  calcium response to cl-CD95L: completely abolished the calcium response
[3]
  execution of the apoptotic signaling pathway: did not affect the execution of the apoptotic signaling pathway
Murin CD95
  CD95-mediated Ca^2+ response: failed to inhibit the CD95-mediated Ca^2+ response
